Results from patent US20260176320A1, “MODULATORS OF G-PROTEIN COUPLED RECEPTORS” (priority 2018, published 2026).
Read-outs that look alike come from different tables or passages of the source. Numbered stars: 1 amine (or outer) side, 2 acyl side, 3 side chain; on linkers, the order of the positions; unused ones are H or OH. Square brackets hold non-standard residues; d marks the D form. Side chains are listed from the residue outwards. Peptide text beside a SMILES is read from it. * marks the point of attachment. X8 = O=C([C@@H](Cc1nn[nH]n1)N[*:1])[*:2]; γGlu = O=C(O)[C@H](CCC(=O)[*:2])N[*:1]; Palmitoyl = CCCCCCCCCCCCCCCC(=O)*; X6 = O=C(CSCC(=O)*)NCCN1CCCCC1=O; Aib = CC(C)(N)C(=O)O

Tests used:
[1] = molecular target: T1, GIP-R (Homo sapiens, UniProt P48546); assay: HitHunter cAMP assay (GIP-R); assay type: cell-based; conditions: cAMP; for Emax: read-out: (Emax) GIP-R
T1 sequence (P48546 22-466): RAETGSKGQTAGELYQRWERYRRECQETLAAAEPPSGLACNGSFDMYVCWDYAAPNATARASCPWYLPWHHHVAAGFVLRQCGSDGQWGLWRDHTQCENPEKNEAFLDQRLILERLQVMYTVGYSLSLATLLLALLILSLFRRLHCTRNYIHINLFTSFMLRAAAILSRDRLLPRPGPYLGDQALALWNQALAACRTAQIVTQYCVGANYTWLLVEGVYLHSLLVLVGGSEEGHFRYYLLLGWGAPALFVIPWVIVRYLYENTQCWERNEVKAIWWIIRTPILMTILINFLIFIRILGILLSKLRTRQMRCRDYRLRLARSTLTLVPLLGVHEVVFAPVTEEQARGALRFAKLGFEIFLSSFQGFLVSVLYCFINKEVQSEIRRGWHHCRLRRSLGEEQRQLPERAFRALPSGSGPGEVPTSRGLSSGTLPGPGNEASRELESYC
Method: (§1) Suspension cells were harvested and resuspended in 1×HBSS (+10 mM HEPES, 625 μM IBMX, 0.2% BSA) according to the following procedure: 5 μL of 2× cell suspension+1× antibody were added to each well, where the optimal cell density was 10,000 cells per well in a low volume 384-well plate. Agonist serial dilutions in a separate 384 well dilution plate in a 22-point series of 2× dilutions of agonist in DMSO were performed as follows. 80 μL of the highest concentration of Agonist/DMSO was added to well No. 1. 40 μL was removed from well No. 1 and added it to well No. 2, followed by gentle mixing. […] This process was repeated until well No. 22. Additional serial dilutions for additional agonists were set up in a similar manner. 50 nL of each 2× agonist serial dilution was added in duplicate to the designated agonist rows of the assay plate using the Labcyte ECHO. Assay plate was incubated for 30 minutes at room temperature. Following agonist incubation, 5 μL of cAMP Antibody Reagent was added to all wells. […] Plates were spun down briefly. Assay plate was incubated for 1 hour at room temperature in the dark for the immunocompetition reaction to occur. […] Plates were spun down briefly. Assay plate was incubated O/N at room temperature in the dark. Samples were read on Tecan i-control plate reader using luminescence mode with 300 ms integration time. Data analysis was performed using GraphPad Prism.

[2] = molecular target: GLP-1R (Homo sapiens, UniProt P43220); assay: HitHunter cAMP assay (GLP-1R); assay type: cell-based; conditions: cAMP; for Emax: read-out: (Emax) GLP-1R
Method: as §1

Chain of GLP-1R (P43220 24-463): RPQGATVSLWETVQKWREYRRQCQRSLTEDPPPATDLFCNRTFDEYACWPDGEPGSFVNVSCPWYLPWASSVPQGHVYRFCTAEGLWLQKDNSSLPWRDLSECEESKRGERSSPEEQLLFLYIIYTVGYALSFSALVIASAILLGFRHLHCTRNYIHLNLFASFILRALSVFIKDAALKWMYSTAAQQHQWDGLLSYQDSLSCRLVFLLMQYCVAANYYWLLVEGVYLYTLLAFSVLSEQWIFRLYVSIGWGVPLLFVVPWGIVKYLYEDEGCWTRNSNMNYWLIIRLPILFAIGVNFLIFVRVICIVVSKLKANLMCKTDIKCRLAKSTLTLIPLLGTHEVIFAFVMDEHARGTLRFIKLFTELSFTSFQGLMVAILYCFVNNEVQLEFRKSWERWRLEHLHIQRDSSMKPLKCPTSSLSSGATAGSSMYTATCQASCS

| SMILES | EC50 ([1]; EC50 GIP-R/nM, Table 3) [nM] | EC50 ([1]; EC50 GIP-R/nM, Table 3A) [nM] | Emax ([1]; Table 3) [%] | Emax ([1]; Table 3A) [%] | EC50 ([2]; EC50 GLP-1R/nM, Table 3) [nM] | EC50 ([2]; EC50 GLP-1R/nM, Table 3A) [nM] | Emax ([2]; Table 3) [%] | Emax ([2]; Table 3A) [%] | EC50 ([1]; Table 3A, read-out: EC50 GIP-R/nM) [nM] | EC50 ([2]; Table 3A, read-out: EC50 GLP-1R/nM) [nM] |
| --- | --- | --- | --- | --- | --- | --- | --- | --- | --- | --- |
| CC[C@H](C)[C@H](NC(=O)[C@H](CO)NC(=O)[C@H](Cc1ccc(O)cc1)NC(=O)[C@H](CC(=O)O)NC(=O)[C@H](CO)NC(=O)[C@@H](NC(=O)[C@H](Cc1ccccc1)NC(=O)[C@@H](NC(=O)CNC(=O)[C@H](CCC(=O)O)NC(=O)CSCC(=O)NCCN1C(=O)[C@@H]2[C@H](C1=O)C2(C)C)[C@@H](C)O)[C@@H](C)O)C(=O)N[C@@H](Cc1ccc(O)cc1)C(=O)N[C@@H](CC(C)C)C(=O)N[C@@H](CC(=O)O)C(=O)N[C@@H](CCCCN)C(=O)N[C@@H](CCC(N)=O)C(=O)N[C@@H](C)C(=O)N[C@@H](C)C(=O)NC(C)(C)C(=O)N[C@@H](CCC(=O)O)C(=O)N[C@@H](Cc1ccccc1)C(=O)N[C@H](C(=O)N[C@@H](CC(N)=O)C(=O)N[C@@H](Cc1c[nH]c2ccccc12)C(=O)N[C@@H](CC(C)C)C(=O)N[C@@H](CC(C)C)C(=O)N[C@@H](C)C(=O)NCC(=O)NCC(=O)N1CCC[C@H]1C(=O)N[C@@H](CO)C(=O)N[C@@H](CO)C(=O)NCC(=O)N[C@@H](C)C(=O)N1CCC[C@H]1C(=O)N1CCC[C@H]1C(=O)N1CCC[C@H]1C(=O)N[C@@H](CO)C(=O)N[C@@H](CCCCN)C(N)=O)C(C)C [Compound 110] | 10 to 100 | 10 to 100 | 33 | 33 | 10 to 100 | 10 to 100 | 88 | 88 |  |  |
| CCCCCCCCCCCCCCCC(=O)N[C@@H](CCC(=O)NCCCC[C@H](NC(=O)[C@H](CO)NC(=O)[C@@H]1CCCN1C(=O)[C@@H]1CCCN1C(=O)[C@@H]1CCCN1C(=O)[C@H](C)NC(=O)CNC(=O)[C@H](CO)NC(=O)[C@H](CO)NC(=O)[C@@H]1CCCN1C(=O)CNC(=O)CNC(=O)[C@H](C)NC(=O)[C@H](CC(C)C)NC(=O)[C@H](CC(C)C)NC(=O)[C@H](Cc1c[nH]c2ccccc12)NC(=O)[C@H](CC(N)=O)NC(=O)[C@@H](NC(=O)[C@H](Cc1ccccc1)NC(=O)[C@H](CCC(=O)O)NC(=O)C(C)(C)NC(=O)[C@H](C)NC(=O)[C@H](C)NC(=O)[C@H](CCC(N)=O)NC(=O)[C@H](CCCCN)NC(=O)[C@H](CC(=O)O)NC(=O)[C@H](CC(C)C)NC(=O)[C@H](Cc1ccc(O)cc1)NC(=O)[C@@H](NC(=O)[C@H](CO)NC(=O)[C@H](Cc1ccc(O)cc1)NC(=O)[C@H](CC(=O)O)NC(=O)[C@H](CO)NC(=O)[C@@H](NC(=O)[C@H](Cc1ccccc1)NC(=O)[C@@H](NC(=O)CNC(=O)[C@H](CCC(=O)O)NC(=O)CSCC(=O)NCCN1C(=O)[C@H](C)C[C@H](C)C1=O)[C@@H](C)O)[C@@H](C)O)[C@@H](C)CC)C(C)C)C(N)=O)C(=O)O [Compound 88] | 1 to 10 | 1 to 10 | 102 | 102 | 1 to 10 | 1 to 10 | 108 | 108 |  |  |
| CCCCCCCCCCCCCCCC(=O)N[C@@H](CCC(=O)NCCCC[C@H](NC(=O)[C@H](CO)NC(=O)[C@@H]1CCCN1C(=O)[C@@H]1CCCN1C(=O)[C@@H]1CCCN1C(=O)[C@H](C)NC(=O)CNC(=O)[C@H](CO)NC(=O)[C@H](CO)NC(=O)[C@@H]1CCCN1C(=O)CNC(=O)CNC(=O)[C@H](C)NC(=O)[C@H](CC(C)C)NC(=O)[C@H](CC(C)C)NC(=O)[C@H](Cc1c[nH]c2ccccc12)NC(=O)[C@H](CC(N)=O)NC(=O)[C@@H](NC(=O)[C@H](Cc1ccccc1)NC(=O)[C@H](CCC(=O)O)NC(=O)C(C)(C)NC(=O)[C@H](C)NC(=O)[C@H](C)NC(=O)[C@H](CCC(N)=O)NC(=O)[C@H](CCCCN)NC(=O)[C@H](CC(=O)O)NC(=O)[C@H](CC(C)C)NC(=O)[C@H](Cc1ccc(O)cc1)NC(=O)[C@@H](NC(=O)[C@H](CO)NC(=O)[C@H](Cc1ccc(O)cc1)NC(=O)[C@H](CC(=O)O)NC(=O)[C@H](CO)NC(=O)[C@@H](NC(=O)[C@H](Cc1ccccc1)NC(=O)[C@@H](NC(=O)CNC(=O)[C@@H](Cc1nn[nH]n1)NC(=O)CSCC(=O)NCCN1CCCCC1=O)[C@@H](C)O)[C@@H](C)O)[C@@H](C)CC)C(C)C)C(N)=O)C(=O)O [Compound 224] (X6-[X8]GTFTSDYSIYLDKQAA[Aib]EFVNWLLAGGPSSGAPPPSK([γGlu-Palmitoyl])-NH2) |  |  |  | 76 |  |  |  | 98 | 10 to 100 | 0.1 to 1 |
| CCCCCCCCCCCCCCCC(=O)N[C@@H](CCC(=O)NCCCC[C@H](NC(=O)[C@H](CO)NC(=O)[C@@H]1CCCN1C(=O)[C@@H]1CCCN1C(=O)[C@@H]1CCCN1C(=O)[C@H](C)NC(=O)CNC(=O)[C@H](CO)NC(=O)[C@H](CO)NC(=O)[C@@H]1CCCN1C(=O)CNC(=O)CNC(=O)[C@H](C)NC(=O)[C@H](CC(C)C)NC(=O)[C@H](CC(C)C)NC(=O)[C@H](Cc1c[nH]c2ccccc12)NC(=O)[C@H](CC(N)=O)NC(=O)[C@@H](NC(=O)[C@H](Cc1ccccc1)NC(=O)[C@H](CCC(=O)O)NC(=O)C(C)(C)NC(=O)[C@H](C)NC(=O)[C@H](C)NC(=O)[C@H](CCC(N)=O)NC(=O)[C@H](CCCCN)NC(=O)[C@H](CC(=O)O)NC(=O)[C@H](CC(C)C)NC(=O)[C@H](Cc1ccc(O)cc1)NC(=O)[C@@H](NC(=O)[C@H](CO)NC(=O)[C@H](Cc1ccc(O)cc1)NC(=O)[C@H](CC(=O)O)NC(=O)[C@H](CO)NC(=O)[C@@H](NC(=O)[C@H](Cc1ccccc1)NC(=O)[C@@H](NC(=O)CNC(=O)[C@H](CCC(=O)O)NC(=O)CSCC(=O)NCCN1C(=O)C[C@H](CC)C1=O)[C@@H](C)O)[C@@H](C)O)[C@@H](C)CC)C(C)C)C(N)=O)C(=O)O (single isomer, unassigned) [Compound 62] |  |  | 48 | 48 |  |  | 101 | 101 |  |  |
| CCCCCCCCCCCCCCCC(=O)N[C@@H](CCC(=O)NCCCC[C@H](NC(=O)[C@H](CO)NC(=O)[C@@H]1CCCN1C(=O)[C@@H]1CCCN1C(=O)[C@@H]1CCCN1C(=O)[C@H](C)NC(=O)CNC(=O)[C@H](CO)NC(=O)[C@H](CO)NC(=O)[C@@H]1CCCN1C(=O)CNC(=O)CNC(=O)[C@H](C)NC(=O)[C@H](CC(C)C)NC(=O)[C@H](CC(C)C)NC(=O)[C@H](Cc1c[nH]c2ccccc12)NC(=O)[C@H](CC(N)=O)NC(=O)[C@@H](NC(=O)[C@H](Cc1ccccc1)NC(=O)[C@H](CCC(=O)O)NC(=O)C(C)(C)NC(=O)[C@H](C)NC(=O)[C@H](C)NC(=O)[C@H](CCC(N)=O)NC(=O)[C@H](CCCCN)NC(=O)[C@H](CC(=O)O)NC(=O)[C@H](CC(C)C)NC(=O)[C@H](Cc1ccc(O)cc1)NC(=O)[C@@H](NC(=O)[C@H](CO)NC(=O)[C@H](Cc1ccc(O)cc1)NC(=O)[C@H](CC(=O)O)NC(=O)[C@H](CO)NC(=O)[C@@H](NC(=O)[C@H](Cc1ccccc1)NC(=O)[C@@H](NC(=O)CNC(=O)[C@H](CCC(=O)O)NC(=O)CSCC(=O)NCCN1C(=O)[C@H]2CC[C@@H]1C2)[C@@H](C)O)[C@@H](C)O)[C@@H](C)CC)C(C)C)C(N)=O)C(=O)O [Compound 289] |  | 10 to 100 |  | 20 |  | < 0.1 |  | 100 |  |  |
| CCCCCCCCCCCCCCCC(=O)N[C@@H](CCC(=O)NCCCC[C@H](NC(=O)[C@H](CO)NC(=O)[C@@H]1CCCN1C(=O)[C@@H]1CCCN1C(=O)[C@@H]1CCCN1C(=O)[C@H](C)NC(=O)CNC(=O)[C@H](CO)NC(=O)[C@H](CO)NC(=O)[C@@H]1CCCN1C(=O)CNC(=O)CNC(=O)[C@H](C)NC(=O)[C@H](CC(C)C)NC(=O)[C@H](CC(C)C)NC(=O)[C@H](Cc1c[nH]c2ccccc12)NC(=O)[C@H](CC(N)=O)NC(=O)[C@@H](NC(=O)[C@H](Cc1ccccc1)NC(=O)[C@H](CCC(=O)O)NC(=O)C(C)(C)NC(=O)[C@H](C)NC(=O)[C@H](C)NC(=O)[C@H](CCC(N)=O)NC(=O)[C@H](CCCCN)NC(=O)[C@H](CC(=O)O)NC(=O)[C@H](CC(C)C)NC(=O)[C@H](Cc1ccc(O)cc1)NC(=O)[C@@H](NC(=O)[C@H](CO)NC(=O)[C@H](Cc1ccc(O)cc1)NC(=O)[C@H](CC(=O)O)NC(=O)[C@H](CO)NC(=O)[C@@H](NC(=O)[C@H](Cc1ccccc1)NC(=O)[C@@H](NC(=O)CNC(=O)[C@H](CCC(=O)O)NC(=O)CSCC(=O)NCCN1C(=O)CC(C)(C)CC1=O)[C@@H](C)O)[C@@H](C)O)[C@@H](C)CC)C(C)C)C(N)=O)C(=O)O [Compound 82] | 1 to 10 | 1 to 10 | 82 | 82 | 1 to 10 | 1 to 10 | 95 | 95 |  |  |
